Data set [1] is described as follows: Parallel artificial membrane permeability assay (PAMPA). The class given is in vitro ADME. As to conditions: PAMPA, Table 3; donor pH 6.5, acceptor pH 7.4, 5 h. Here is the method: The permeability of the compounds was assessed using the PAMPA method ([Yu et al., 2015]). The test compounds were dissolved in DMSO to a concentration of 5 mM. Next, the compounds were diluted in a stock plate in saline phosphate buffer (PBS), pH 6.5, containing 1% DMSO to a concentration of 1 µM. Then, 300 µl of each test compound was added to the donor plate. Afterward, 200 µl of PBS buffer, pH 7.4, was added to the acceptor plate. The donor plate was attached to the acceptor plate. The assembled acceptor-donor plate was then incubated at 37°C for 5 h under gentle agitation. To analyze the concentration of the compounds by mass spectrometry, two analysis plates (one for the donor and another for the acceptor plate) containing 300 μl of MEOH:ACN 50:50 were prepared. To the donor analysis plate, 90 µl of PBS, pH 6.5, and 10 µl of the content of the donor plate were added. For the acceptor analysis plate, 100 µl of the content of the acceptor plate was added. To monitor any potential decomposition/intrinsic instability of the test compounds in solution, samples from the stock plate were subjected to LC-MS/MS. The compounds that presented Pe ≥ 1.5 × 10^−6 cm/s were classified as permeable, while compounds that presented Pe < 1.5 × 10^−6 cm/s were considered poorly permeable or nonpermeable.

The subject of data set [2] is T. cruzi intracellular amastigotes. The data set is described as follows: Assay against T. cruzi intracellular amastigotes (Tulahuen lacZ strain in HFF-1 fibroblasts). The class given is cell-based, Trypanosoma cruzi. As to conditions: Trypanosoma cruzi, HFF-1, 120 h, Table 3, 120 h, mean ± SD of three assays. The procedure:
Biological assays against T. cruzi intracellular amastigotes were performed as reported previously using the T. cruzi Tulahuen strain, which is genetically engineered to express the E. coli β-galactosidase gene lacZ ([Buckner et al., 1996]). β-Galactosidase catalyzes a colorimetric reaction with chlorophenol red β-D-galactopyranoside (CPRG, Sigma Chemical Co., St. Louis, MO) as the substrate. The assays were conducted in 96-well tissue culture plates, and the compounds to be tested were prepared in 100% DMSO. Epimastigotes were maintained in liver infusion tryptone (LIT) enriched with 10% fetal calf serum (FCS), streptomycin, and penicillin at 28°C. Epimastigotes were converted to trypomastigotes by incubation in Grace’s insect medium (Sigma–Aldrich, St. Louis, MO) enriched with 10% FCS at 28°C. Human HFF-1 fibroblasts were seeded at 2 × 10^3/well in 80 μl of RPMI 1640 without phenol red and incubated overnight at 37°C and 5% CO2. Trypomastigotes were seeded at 1.0 × 10^4/well in 20 μl of RPMI 1640, and the plates were incubated at 37°C and 5% CO2. The next day, the synthesized compounds were added (50 μl) in 3-fold serial dilutions at concentrations ranging from 0.4 to 300 μM, and the plates were incubated at 37°C and 5% CO2. Each compound concentration was assayed in triplicate. After 120 h, 50 μl of chlorophenol red β-D-galactopyranoside (CPRG, Sigma–Aldrich) and IGEPAL CA-630 (Sigma–Aldrich) at a final concentration of 0.1% were added. The absorbance was measured at a wavelength of 570 nm in an automated microplate reader. The data were transferred to SigmaPlot 10.0 (Systat Software Inc., Erkrath, Germany) to determine the IC50 values. Benznidazole (BZ, Sigma–Aldrich) was used as a positive control, and untreated wells (100% parasite growth) were used as negative controls in all plates. All compounds were tested in three independent assays.

For data set [3], the target named is T1, cruzain (Trypanosoma cruzi, UniProt P25779).
T1 construct: made in house; host or cells: Escherichia coli (strain M15)
The data set is described as follows: Cruzain enzyme inhibition assay (cleavage of fluorogenic substrate Z-FR-AMC). The class given is biochemical. Here is the method: Pro-cruzain truncated at the C-terminus was expressed and purified using a previously described protocol ([Ferreira et al., 2019]). Escherichia coli (strain M15) cultures were grown overnight at 37°C and 200 rpm in Luria Bertani (LB) medium supplemented with ampicillin (100 μg/ml) and kanamycin (50 μg/ml). Next, the cultures were diluted 10-fold in fresh LB medium supplemented with 0.5 M NaCl, 0.2% glucose, 1 mM betaine, 0.5 M sorbitol, 100 μg/ml ampicillin, and 50 μg/ml kanamycin and incubated at 37°C and 200 rpm. At an optical density (OD600) of 0.9, the cultures were incubated at 47°C for 20 min to promote the expression of chaperones. Then, the expression of cruzain was induced by adding isopropyl β-D-thiogalactopyranoside (IPTG) to a final concentration of 0.2 mM, which was followed by overnight incubation of the cultures at 20°C and 200 rpm. Next, the cultures were centrifuged (5,000 rpm, 30 min, 4°C), and the cells were suspended in 50 ml of lysis buffer (300 mM NaCl, 50 mM Tris-HCl, and 1.6 mg/ml lysozyme, pH 8.0) per liter of culture and lysed by sonication (12 cycles of 30 s). This cell lysate was centrifuged (9,000 rpm, 30 min, 4°C), and the supernatant was collected. Cruzain was precipitated by incubation with 35% ammonium sulfate (2 h), and this suspension was centrifuged at 9,000 rpm for 30 min at 4°C. The precipitated cruzain was resuspended in lysis buffer, and the sample was dialyzed to eliminate ammonium sulfate. The soluble fraction of the dialysate was loaded on a Ni−NTA column (Qiagen, Hilden, Germany), and the contaminants were washed using washing buffer (300 mM NaCl, 50 mM Tris-HCl, and 10 mM imidazole, pH 8.0). Cruzain was eluted by applying an increasing imidazole gradient: 25, 50, 75, 100, and 250 mM. The fractions containing cruzain were pooled together and dialyzed against 1.5 L of 0.1 M acetate buffer, pH 5.5, and then concentrated to 0.5 mg/ml. Pro-cruzain was activated by incubation with activation buffer (100 mM sodium acetate, pH 5.5, 10 mM EDTA, 5 mM DTT, and 1 M NaCl) at 37°C. […] After activation, the enzyme was diluted 20-fold in binding buffer (20 mM sodium phosphate and 150 mM NaCl, pH 7.2) and added to thiopropyl Sepharose 6B resin (GE Healthcare Life Sciences, Pittsburgh, PA). After overnight incubation at 4°C, the resin was loaded on a column, and cruzain was eluted with binding buffer supplemented with 20 mM DTT. Fractions containing cruzain were pooled together and stored in 0.1 M sodium acetate, pH 5.5, at −80°C.
Cruzain activity was followed by monitoring the cleavage of the fluorogenic substrate Z-Phe-Arg-aminomethyl coumarin (Z-FR-AMC), as previously described ([Ferreira et al., 2019]), using 96-well flat-bottom black plates and wavelengths of 355 nm for excitation and 460 nm for emission. All cruzain assays were performed in 0.1 M sodium acetate buffer with 5 mM dithiothreitol (DTT) and 0.01% Triton X-100, pH 5.5. […] The cleavage of the substrate was monitored for 5 min, and the activity was calculated based on the initial reaction rates compared with the rate of a DMSO control at 30°C. The IC50 values were independently calculated by considering the rate measurements for at least six inhibitor concentrations, each evaluated in triplicate. To determine the mechanism of cruzain inhibition, eight concentrations of the substrate Z-FR-AMC and four concentrations of the inhibitor were employed, each in triplicate. Kinetic parameters were determined using the SigmaPlot (Systat Software Inc., Erkrath, Germany) enzyme kinetics module. Compounds were tested in two or three independent experiments. All enzyme assays were performed using varying Triton X-100 concentrations (0, 0.01, and 0.1%) ([Ferreira et al., 2009]). Compound concentrations were 100 μM in the single-dose percentage inhibition assays.

Data set [4] has as its target rhodesain (Trypanosoma brucei rhodesiense, UniProt Q95PM0). The data set can be described thus: Rhodesain fluorescence-based inhibition assay (Z-FR-AMC). It is filed as biochemical. The following applies: Table S3; compound 100 µM. Here is the method: Rhodesain activity was measured using a fluorescence-based assay as previously described ([Fonseca et al., 2015]). The cleavage rates of the fluorogenic substrate Z-Phe-Arg-aminomethyl coumarin (Z-FR-AMC) were monitored at wavelengths of 340 nm for excitation and 440 nm for emission. All assays were performed in triplicate in a 0.1 M sodium acetate buffer, pH 5.5, with 1 mM beta-mercaptoethanol and 0.01% Triton X-100. The final concentration of rhodesain was 3 nM, and the substrate concentration was 2.5 μM. The cleavage of the substrate was followed by continuous reading for 5 min, and enzyme activity in the presence of 100 μM of each potential inhibitor was calculated based on initial velocity rates compared to DMSO controls. All compounds were tested in triplicate in three independent experiments.

T1 sequence (P25779 123-337 limits assumed): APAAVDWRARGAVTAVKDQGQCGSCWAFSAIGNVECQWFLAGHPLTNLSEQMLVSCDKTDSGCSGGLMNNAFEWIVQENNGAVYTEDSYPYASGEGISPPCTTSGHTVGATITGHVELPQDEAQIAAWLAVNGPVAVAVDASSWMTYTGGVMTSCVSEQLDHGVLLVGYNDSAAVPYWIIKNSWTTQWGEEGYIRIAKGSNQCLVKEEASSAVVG
Chain of rhodesain (Q95PM0 entry or part of it): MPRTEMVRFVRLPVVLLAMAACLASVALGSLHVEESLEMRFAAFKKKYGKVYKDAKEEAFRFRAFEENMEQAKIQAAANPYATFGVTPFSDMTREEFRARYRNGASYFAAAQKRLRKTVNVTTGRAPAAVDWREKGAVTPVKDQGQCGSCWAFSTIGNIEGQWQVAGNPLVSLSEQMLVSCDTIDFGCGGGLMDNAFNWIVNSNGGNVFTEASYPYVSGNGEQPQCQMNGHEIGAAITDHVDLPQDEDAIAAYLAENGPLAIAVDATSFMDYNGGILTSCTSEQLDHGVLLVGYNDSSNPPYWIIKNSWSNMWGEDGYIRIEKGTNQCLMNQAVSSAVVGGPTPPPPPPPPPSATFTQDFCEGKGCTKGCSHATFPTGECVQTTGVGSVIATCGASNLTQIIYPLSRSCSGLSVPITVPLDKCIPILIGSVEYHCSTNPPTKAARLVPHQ

Turning to `O=C(COc1ccc2cc(C(=O)O)ccc2c1)NCCc1nc2ccccc2[nH]1` [Compound 13], in data set [1], the Papp at 5 h, 1 µM is 0.83 ×10⁻⁶ cm/s. Besides, the half-maximal inhibitory concentration (IC50) in data set [2] was over 50 µM; in data set [3] (1.5 nM cruzain, 5.0 µM Z-FR-AMC, mean ± SD of 2–3 assays, read-out: IC50 (µM) against cruzain) it was 24.2 ± 4.5 µM. The inhibition at 100 µM in data set [3] (compound 100 µM, mean of three measures) amounted to 89%; in data set [4], 54%.
